Assays:
Assay in all cases: relative viability (nuclei count vs DMSO), 5 days (fraction); higher = more cells survive
DM3189 + Trametinib = compound: C1CN(CCN1)C2=CC=C(C=C2)C3=CN4C(=C(C=N4)C5=CC=NC6=CC=CC=C56)N=C3 [DM3189] + CC(=O)Nc1cccc(-n2c(=O)n(C3CC3)c(=O)c3c(Nc4ccc(I)cc4F)n(C)c(=O)c(C)c32)c1 [Trametinib] (partner 0.02 µM)
Summary of the method: (§1)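 Nuclei were stained with Hoechst during a one-step fixation (final 0.05% Triton X-100, 1% formaldehyde, 1 ug/ml Hoechst) carried out 5 days after dosing, then counted on 4× images. The cells, lung cancer lines in 1536-well plates, had been dosed by pin tool the day after seeding with one drug alone or a fixed anchor-drug dose plus five library-drug doses (not always all listed) in √10 steps. Relative viability is the nuclei count in treated wells divided by that in vehicle wells, and each value is the median of duplicate plates.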

DM3189 + Pictilisib = compound: C1CN(CCN1)C2=CC=C(C=C2)C3=CN4C(=C(C=N4)C5=CC=NC6=CC=CC=C56)N=C3 [DM3189] + CS(=O)(=O)N1CCN(Cc2cc3nc(-c4cccc5[nH]ncc45)nc(N4CCOCC4)c3s2)CC1 [Pictilisib] (partner 1 µM)
Summary of the method: as §1

DM3189 + Crizotinib = compound: C1CN(CCN1)C2=CC=C(C=C2)C3=CN4C(=C(C=N4)C5=CC=NC6=CC=CC=C56)N=C3 [DM3189] + C[C@@H](Oc1cc(-c2cnn(C3CCNCC3)c2)cnc1N)c1c(Cl)ccc(F)c1Cl [Crizotinib] (partner 1 µM)
Summary of the method: as §1

DM3189 + AZD7762 = compound: C1CN(CCN1)C2=CC=C(C=C2)C3=CN4C(=C(C=N4)C5=CC=NC6=CC=CC=C56)N=C3 [DM3189] + NC(=O)Nc1cc(-c2cccc(F)c2)sc1C(=O)N[C@H]1CCCNC1 [AZD7762] (partner 0.2 µM)
Summary of the method: as §1

DM3189 + Olaparib = compound: C1CN(CCN1)C2=CC=C(C=C2)C3=CN4C(=C(C=N4)C5=CC=NC6=CC=CC=C56)N=C3 [DM3189] + O=C(c1cc(Cc2n[nH]c(=O)c3ccccc23)ccc1F)N1CCN(C(=O)C2CC2)CC1 [Olaparib] (partner 8 µM)
Summary of the method: as §1

Cell Line	relative viability (DM3189 + Trametinib; first compound 0.08 µM)	relative viability (DM3189 + Trametinib; first compound 0.253 µM)	relative viability (DM3189 + Trametinib; first compound 0.8 µM)	relative viability (DM3189 + Trametinib; first compound 2.53 µM)	relative viability (DM3189 + Pictilisib; first compound 0.08 µM)	relative viability (DM3189 + Pictilisib; first compound 0.253 µM)	relative viability (DM3189 + Pictilisib; first compound 0.8 µM)	relative viability (DM3189 + Pictilisib; first compound 2.53 µM)	relative viability (DM3189 + Crizotinib; first compound 0.08 µM)	relative viability (DM3189 + Crizotinib; first compound 0.253 µM)	relative viability (DM3189 + Crizotinib; first compound 0.8 µM)	relative viability (DM3189 + Crizotinib; first compound 2.53 µM)	relative viability (DM3189 + AZD7762; first compound 0.08 µM)	relative viability (DM3189 + AZD7762; first compound 0.253 µM)	relative viability (DM3189 + AZD7762; first compound 0.8 µM)	relative viability (DM3189 + AZD7762; first compound 2.53 µM)	relative viability (DM3189 + Olaparib; first compound 0.08 µM)	relative viability (DM3189 + Olaparib; first compound 0.253 µM)	relative viability (DM3189 + Olaparib; first compound 0.8 µM)	relative viability (DM3189 + Olaparib; first compound 2.53 µM)
LCLC-97TM1	0.211	0.198	0.205	0.216	0.186	0.151	0.159	0.13	0.304	0.249	0.297	0.313	0.275	0.177	0.207	0.171	0.415	0.314	0.281	0.397
NCI-H2170	1.09	0.96	0.835	0.825	0.308	0.301	0.288	0.291	1.31	1.27	1.24	1.09	0.933	0.884	0.875	0.652	0.607	0.69	0.534	0.469
NCI-H1975	0.37	0.367	0.316	0.299	0.42	0.309	0.269	0.201	1.1	0.928	0.819	0.647	0.757	0.682	0.522	0.625	0.952	0.777	0.646	0.639
NCI-H441	0.563	0.536	0.508	0.407	0.51	0.563	0.42	0.409	0.951	0.751	0.737	0.924	1.25	0.862	1.16	1.35	0.689	0.485	0.663	0.583
NCI-H1651	0.867	0.793	0.813	0.937	0.713	0.578	0.467	0.468	0.857	0.886	0.878	0.957	0.536	0.457	0.443	0.444	0.191	0.179	0.168	0.177
HARA	0.674	0.736	0.712	0.944	0.645	0.362	0.288	0.35	0.991	0.992	0.917	1.21	0.263	0.364	0.161	0.302	1.23	0.733	0.579	0.654
H3255	0.789	0.731	0.513	0.732	0.585	0.511	0.446	0.529	1.09	0.818	0.623	0.845	1.14	0.883	0.88	0.943	0.576	0.573	0.547	0.627
NCI-H460	0.341	0.242	0.154	0.241	0.387	0.464	0.223	0.43	0.839	0.939	0.96	1.02	0.784	0.524	0.395	0.691	0.449	0.415	0.325	0.619
CAL-12T	0.405	0.339	0.384	0.488	0.43	0.321	0.575	0.544	0.508	0.658	0.704	0.543	0.533	0.629	0.585	0.684	0.713	0.618	0.681	0.803
NCI-H1792	0.538	0.482	0.438	0.62	0.228	0.248	0.165	0.271	0.861	0.992	0.887	0.441	0.796	0.65	0.593	0.616	0.647	0.354	0.404	0.38
NCI-H1437	0.63	0.577	0.65	0.696	0.425	0.438	0.411	0.537	0.904	0.898	0.832	0.831	1.14	1.15	0.969	1	0.627	0.633	0.609	0.592
HOP-62	0.421	0.509	0.475	0.51	0.86	0.562	0.572	0.836	1	0.866	0.939	0.75	0.672	0.646	0.621	0.596	0.347	0.547	0.167	0.404
EPLC-272H	0.285	0.326	0.267	0.322	0.322	0.347	0.276	0.27	0.97	0.96	0.941	0.821	0.174	0.219	0.276	0.186	0.669	0.714	0.735	0.565
HCC-366	0.414	0.362	0.352	0.432	0.209	0.134	0.116	0.137	0.475	0.574	0.372	0.771	0.293	0.267	0.197	0.241	0.312	0.325	0.311	0.416
HCC-44	1.07	1.09	0.897	1.2	0.815	0.615	0.472	0.752	0.859	0.818	0.625	0.893	0.984	1.03	0.92	0.996	0.996	0.918	0.944	0.931

From the supplement of paper PMC10307832
